{
  "source": "patent US9566261B2",
  "about": "(priority 2013, dated 2017)",
  "tested_on": "lithium-pilocarpine treated rats",
  "experiment": "Morris water maze using pilocarpine-induced status epilepticus (SE)",
  "type": "in vivo",
  "excerpt": "To assess spatial memory and learning in lithium-pilocarpine treated animals and to identify novel compounds that might ameliorate cognitive deficits and neuronal loss associated with pilocarpine-induced status epilepticus (SE). Morris water maze has been used extensively in the study of learning and memory. This test uses a round pool of water in which an escape platform is submerged beneath the surface. The task is to find the hidden platform using only extra maze visual cues (Morris, 1984). Learning can be assessed by quantifying the time that an animal takes to find the platform (latency) over a number of independent trials. […]\nTwenty four hours prior to pilocarpine administration, rats were weighed and given lithium chloride (127 mg/kg; i.p.). On the next day, they received pilocarpine hydrochloride (50 mg/kg; i.p.) and were monitored carefully for behavioral seizures. […] All animals were observed and scored for seizure severity for an additional 1.5 hr. […] In our spatial learning protocol rats, received 4 training trials per day wherein the outcome measure evaluated was their ability to find the hidden platform. […] On each of the trials, rats were placed in the water facing the wall at one of the 4 randomly determined starting locations (north, west, east or south) and allowed 120 sec to find the platform. […]",
  "data": [
    {"smiles": "C[C@H](OC(N)=O)[C@@H](O)c1ccccc1Cl", "note": "[Compound 1, 1-(2-chlorophenyl)-(S)-1-hydroxypropyl-(S)-2-carbamate]", "values": [
      {"measurement": "average time to find the escape platform (latency)", "setting": "65 mg/kg i.p. 15 minutes after the first stage 3 seizure, vs pilocarpine alone group, FIG. 3", "value": "significant difference in the Pilo+Compound 1 group as compared to the pilocarpine alone group"},
      {"measurement": "mortality", "setting": "125 mg/kg administered 30 min after the first convulsive seizure", "value": "death of all animals"}
    ]}
  ]
}
